Measured values taken from PubChem BioAssay (NCI).
Where “and” joins values, the source holds several entries; their conditions need not be identical. Equal entries are not always repeated.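 Interpolation was linear, between the two tested concentrations surrounding the appropriate level; five concentrations were tested over 48 hours in 96-well plates. GI50 marks 50% less growth. TGI: total growth inhibition.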

Assays:
Assay in all cases: NCI-60 cell line screen, 48 h
SK-MEL-2 melanoma = test system: SK-MEL-2 melanoma
OVCAR-4 ovarian = test system: OVCAR-4 ovarian
SNB-19 CNS = test system: SNB-19 CNS
CCRF-CEM leukemia = test system: CCRF-CEM leukemia
PC-3 prostate = test system: PC-3 prostate
U251 CNS = test system: U251 CNS
HT29 colon = test system: HT29 colon
DU-145 prostate = test system: DU-145 prostate

O=C1c2cc(Cl)ccc2-c2c1c1ccc([N+](=O)[O-])cc1c(=O)n2CCCBr
GI50 (SK-MEL-2 melanoma): 82.6 µM | TGI (SK-MEL-2 melanoma): > 100 µM | GI50 (OVCAR-4 ovarian): 78.2 µM | TGI (OVCAR-4 ovarian): > 100 µM | GI50 (SNB-19 CNS): 3.74 µM | TGI (SNB-19 CNS): > 100 µM | GI50 (CCRF-CEM leukemia): 0.625 µM | TGI (CCRF-CEM leukemia): > 100 µM | GI50 (PC-3 prostate): 19.2 µM | TGI (PC-3 prostate): > 100 µM | GI50 (U251 CNS): 3.07 µM | TGI (U251 CNS): > 100 µM | GI50 (HT29 colon): 12.5 µM | TGI (HT29 colon): > 100 µM | GI50 (DU-145 prostate): 4 µM | TGI (DU-145 prostate): > 100 µM

COc1ccccc1/C=C/C(=O)c1ccccc1
GI50 (SK-MEL-2 melanoma): 12 µM | TGI (SK-MEL-2 melanoma): 26.4 µM | GI50 (OVCAR-4 ovarian): 9.33 µM | TGI (OVCAR-4 ovarian): 25.9 µM | GI50 (SNB-19 CNS): 12.7 µM | TGI (SNB-19 CNS): 26.4 µM | GI50 (CCRF-CEM leukemia): 2.87 µM | TGI (CCRF-CEM leukemia): 11.5 µM | GI50 (PC-3 prostate): 5.65 µM | TGI (PC-3 prostate): 28 µM | GI50 (U251 CNS): 3.69 µM | TGI (U251 CNS): 15 µM | GI50 (HT29 colon): 5.73 µM | TGI (HT29 colon): 26.9 µM | GI50 (DU-145 prostate): 5.23 µM | TGI (DU-145 prostate): 16.3 µM

Cc1cc2c(cc1Cl)SC1=NN(C)C(N(C)C)N1S2(=O)=O (configuration not stated)
GI50 (SK-MEL-2 melanoma): > 100 µM | TGI (SK-MEL-2 melanoma): > 100 µM | GI50 (OVCAR-4 ovarian): > 100 µM | TGI (OVCAR-4 ovarian): > 100 µM | GI50 (SNB-19 CNS): > 100 µM | TGI (SNB-19 CNS): > 100 µM | GI50 (CCRF-CEM leukemia): > 100 µM | TGI (CCRF-CEM leukemia): > 100 µM | GI50 (PC-3 prostate): > 100 µM | TGI (PC-3 prostate): > 100 µM | GI50 (U251 CNS): > 100 µM | TGI (U251 CNS): > 100 µM | GI50 (HT29 colon): > 100 µM | TGI (HT29 colon): > 100 µM | GI50 (DU-145 prostate): > 100 µM | TGI (DU-145 prostate): > 100 µM

CCN(CC)C(=S)Oc1cc2oc(=O)cc(C)c2cc1Cl
TGI (SK-MEL-2 melanoma): > 100 µM | TGI (OVCAR-4 ovarian): > 100 µM | TGI (SNB-19 CNS): > 100 µM | TGI (CCRF-CEM leukemia): > 100 µM | TGI (PC-3 prostate): > 100 µM | TGI (U251 CNS): > 100 µM | TGI (HT29 colon): > 100 µM | TGI (DU-145 prostate): > 100 µM

COc1ccc(Cn2cc3c(c2)-c2oncc2CC3)cc1
GI50 (SK-MEL-2 melanoma): 4.88 µM | TGI (SK-MEL-2 melanoma): 22.3 µM | GI50 (OVCAR-4 ovarian): 6.53 µM | TGI (OVCAR-4 ovarian): > 29.8 µM | GI50 (SNB-19 CNS): 9.05 µM | TGI (SNB-19 CNS): > 100 µM | GI50 (CCRF-CEM leukemia): 2.87 µM | TGI (CCRF-CEM leukemia): > 88.6 µM | GI50 (PC-3 prostate): 5.26 µM | TGI (PC-3 prostate): 61.1 µM | GI50 (U251 CNS): 4.43 µM | TGI (U251 CNS): > 92 µM | GI50 (HT29 colon): 3.69 µM | TGI (HT29 colon): > 64.8 µM | GI50 (DU-145 prostate): 4.46 µM | TGI (DU-145 prostate): 34.5 µM

O=c1cccc(C2CC(CO)C3CCCCN3C2)[nH]1 (configuration not stated)
TGI (SK-MEL-2 melanoma): > 100 µM | TGI (OVCAR-4 ovarian): > 100 µM | TGI (SNB-19 CNS): > 100 µM | TGI (CCRF-CEM leukemia): > 100 µM | TGI (PC-3 prostate): > 100 µM | TGI (U251 CNS): > 100 µM | TGI (HT29 colon): > 100 µM | TGI (DU-145 prostate): > 100 µM

COc1cc2ncnc(Nc3ccc(F)c(Cl)c3)c2cc1NC(=O)/C=C/CN1CCCCC1
GI50 (SK-MEL-2 melanoma): 1.81 µM and 1.72 µM | TGI (SK-MEL-2 melanoma): 3.52 µM and 3.39 µM | GI50 (OVCAR-4 ovarian): 1.16 µM and 1.79 µM | TGI (OVCAR-4 ovarian): 4.86 µM and 7.17 µM | GI50 (SNB-19 CNS): 2.04 µM and 1.86 µM | TGI (SNB-19 CNS): 17 µM and > 10 µM | GI50 (CCRF-CEM leukemia): 1.01 µM and 2.03 µM | TGI (CCRF-CEM leukemia): 5.7 µM and 8 µM | GI50 (PC-3 prostate): 2.53 µM and 2.78 µM | TGI (PC-3 prostate): 10.5 µM and > 10 µM | GI50 (U251 CNS): 1.46 µM and 1.87 µM | TGI (U251 CNS): 3.26 µM and 4.27 µM | GI50 (HT29 colon): 1.68 µM and 2.08 µM | TGI (HT29 colon): 3.59 µM and > 7.79 µM | GI50 (DU-145 prostate): 0.365 µM and 0.401 µM | TGI (DU-145 prostate): 11.4 µM and > 10 µM

CCOc1cc(/C=N\Nc2nnc(C)n2N)c(C)cc1N(CCCl)CCCl
GI50 (SK-MEL-2 melanoma): 2.11 µM | TGI (SK-MEL-2 melanoma): 5.33 µM | GI50 (OVCAR-4 ovarian): 0.338 µM | TGI (OVCAR-4 ovarian): > 68.2 µM | GI50 (SNB-19 CNS): 1.28 µM | TGI (SNB-19 CNS): > 45.7 µM | GI50 (CCRF-CEM leukemia): 0.655 µM | TGI (CCRF-CEM leukemia): 32.5 µM | GI50 (PC-3 prostate): 0.927 µM | TGI (PC-3 prostate): 7.41 µM | GI50 (U251 CNS): 0.747 µM | TGI (U251 CNS): > 28.5 µM | GI50 (HT29 colon): 0.648 µM | TGI (HT29 colon): 7.17 µM | GI50 (DU-145 prostate): 2.68 µM | TGI (DU-145 prostate): > 100 µM

COc1cc(-c2cn(-c3ccc(Cl)c(Cl)c3)c(=O)n2C(C)=O)cc(OC)c1OC
GI50 (SK-MEL-2 melanoma): 10.6 µM | TGI (SK-MEL-2 melanoma): 25.3 µM | GI50 (OVCAR-4 ovarian): 5.21 µM | TGI (OVCAR-4 ovarian): > 100 µM | GI50 (SNB-19 CNS): 11.3 µM | TGI (SNB-19 CNS): 33.2 µM | GI50 (CCRF-CEM leukemia): 16.1 µM | TGI (CCRF-CEM leukemia): 59.9 µM | GI50 (PC-3 prostate): 4.3 µM | TGI (PC-3 prostate): 17.8 µM | GI50 (U251 CNS): 8.86 µM | TGI (U251 CNS): 21.3 µM | GI50 (HT29 colon): 6.32 µM | TGI (HT29 colon): 21.8 µM | GI50 (DU-145 prostate): 5.32 µM | TGI (DU-145 prostate): 18.2 µM

CC[PH+](CC)CC.O=COC1OC([S-])C(OC=O)C(OC=O)C1OC=O.[Au+] (configuration not stated)
GI50 (SK-MEL-2 melanoma): 1.47 µM | TGI (SK-MEL-2 melanoma): 3.38 µM | GI50 (OVCAR-4 ovarian): 1.89 µM | TGI (OVCAR-4 ovarian): 4.53 µM | GI50 (SNB-19 CNS): 1.34 µM | TGI (SNB-19 CNS): 2.61 µM | GI50 (CCRF-CEM leukemia): 0.64 µM | TGI (CCRF-CEM leukemia): 4.1 µM | GI50 (PC-3 prostate): 1.66 µM | TGI (PC-3 prostate): 3.54 µM | GI50 (U251 CNS): 0.368 µM | TGI (U251 CNS): 1.47 µM | GI50 (HT29 colon): 1.65 µM | TGI (HT29 colon): 5.3 µM | GI50 (DU-145 prostate): 1.58 µM | TGI (DU-145 prostate): 3.33 µM

CCn1c2ccc(O)cc2c2c(C)c3c[n+](C)ccc3c(C)c21
GI50 (SK-MEL-2 melanoma): 3.91 µM | TGI (SK-MEL-2 melanoma): 20.1 µM | GI50 (OVCAR-4 ovarian): 5.83 µM | TGI (OVCAR-4 ovarian): 47.1 µM | GI50 (SNB-19 CNS): 0.272 µM | TGI (SNB-19 CNS): 6.88 µM | GI50 (CCRF-CEM leukemia): 5.7 µM | TGI (CCRF-CEM leukemia): > 100 µM | GI50 (PC-3 prostate): 15.2 µM | TGI (PC-3 prostate): > 100 µM | GI50 (U251 CNS): 0.307 µM | TGI (U251 CNS): 9.72 µM | GI50 (HT29 colon): 13.2 µM | TGI (HT29 colon): > 100 µM | GI50 (DU-145 prostate): 5.25 µM | TGI (DU-145 prostate): > 100 µM

Cc1sc2nc3c4ccccc4c(NCCCN(C)C)nn3c(=O)c2c1C
GI50 (SK-MEL-2 melanoma): 20 µM | TGI (SK-MEL-2 melanoma): 39.7 µM | GI50 (OVCAR-4 ovarian): 12.1 µM | TGI (OVCAR-4 ovarian): 24.9 µM | GI50 (SNB-19 CNS): 15.9 µM | TGI (SNB-19 CNS): 29.5 µM | GI50 (CCRF-CEM leukemia): 6.13 µM | TGI (CCRF-CEM leukemia): 17.2 µM | GI50 (PC-3 prostate): 11.5 µM | TGI (PC-3 prostate): 24.2 µM | GI50 (U251 CNS): 6.66 µM | TGI (U251 CNS): 20 µM | GI50 (HT29 colon): 1.52 µM | TGI (HT29 colon): 3.36 µM | GI50 (DU-145 prostate): 4.4 µM | TGI (DU-145 prostate): 14.5 µM

NC(=O)c1cc2c3ccccc3ccn2c1-c1ccccc1
GI50 (SK-MEL-2 melanoma): 0.883 µM | TGI (SK-MEL-2 melanoma): 40.9 µM | GI50 (OVCAR-4 ovarian): 0.155 µM | TGI (OVCAR-4 ovarian): > 54.5 µM | GI50 (SNB-19 CNS): 0.0727 µM | TGI (SNB-19 CNS): 22.1 µM | GI50 (CCRF-CEM leukemia): 0.0425 µM | TGI (CCRF-CEM leukemia): 13.8 µM | GI50 (PC-3 prostate): 0.0371 µM | TGI (PC-3 prostate): 12.6 µM | GI50 (U251 CNS): 0.0475 µM | TGI (U251 CNS): 14.2 µM | GI50 (HT29 colon): 0.412 µM | TGI (HT29 colon): 9.12 µM | GI50 (DU-145 prostate): 0.0719 µM | TGI (DU-145 prostate): 2.54 µM
